Reference: US5216001A, “Indole derivatives” (H. Lunbeck A/S, priority 1990, dated 1993)
Where two headings read alike, the source gives them in different places.

How the values were obtained:
[1] = biological target: α1 adrenoceptors; assay: inhibition of 3H-prazosin binding to α1 adrenoceptors in rat brain in vitro; details: 3H-prazosin 0.25 nM, rat brain membranes, read-out: Binding IC50, 3H Praz.
Method: INHIBITION OF ^3 H-PRAZOSIN BINDING TO α1 ADRENOCEPTORS IN RAT BRAIN IN VITRO
Method and results in Hyttel and Larsen, J. Neurochem, 44, 1615-1622, 1985; Skarsfeldt and Hyttel, Eur. J. Pharmacol. 125, 323-340, 1986.
(§1) Male Wistar (Mol:Wist) rats (125-200 g) are sacrificed and brain tissue is dissected and weighed. The tissue is homogenized (Ultra Turrax, 10 sec.) in 10 ml of ice-cold 50 nM Tris buffer pH 7.7 (at 25° C.). The homogenate is centrifuged twice at 20,000 g for 10 min. at 4° C. with rehomogenization of the pellet in 10 ml ice-cold buffer. The final pellet is homogenized in 400 vol (w/v) ice-cold buffer.
Incubation tubes kept on ice in triplicate receive 100 μl of drug solution in water (or water for total binding) and 4000 μl of tissue suspension (final tissue content corresponds to 10 mg original tissue). The binding experiment is initiated by addition of 100 μl of ^3 H-Prazosin (final concentration 0.25 nM) and by placing the tubes in a 25° C. water bath. After incubation for 20 min. the samples are filtered under vacuum (0-50 mBar) through Whatman GF/F filters (25 mm). The tubes are rinsed with 5 ml ice-cold buffer which then are poured on the filters. Thereafter, the filters are washed with 5 ml of buffer. The filters are placed in counting vials and 4 ml of appropriate scintillation fluid (e.g. Picofluor™15) are added. After shaking for 1 h and storage 2 hrs in the dark the content of radioactivity is determined by liquid scintillation counting. Specific binding is obtained by subtracting the nonspecific binding in the presence of 1 μM of Prazosin.
(§2) For determination of the inhibition of binding five concentrations of drugs covering 3 decades are used.
The measured cpm are plotted against drug concentration on semilogarithmic paper and the best fitting S-shaped curve is drawn. The IC50 value is determined as the concentration at which the binding is 50% of the total binding in control samples minus the nonspecific binding in the presence of 1 μM of Prazosin. ^3 H-Prazosin=[furoyl-5-^3 H]-Prazosin from New England Nuclear, specific activity approximately 20 Ci/mmol.

[2] = biological target: T1, serotonin S2 (5-HT2) receptors (Rattus norvegicus, UniProt P14842); assay: inhibition of 3H-ketanserin binding to serotonin S2 (5-HT2) receptors in rat cortex in vitro; details: 3H-ketanserin 0.5 nM, rat cortex membranes, read-out: Binding IC50, 3H Ket.
T1 construct: cortical tissue is dissected and weighed; from tissue; host or cells: cerebral cortex membranes of male Wistar (Mol:Wist) rats
Method: Method in Hyttel, Pharmacology & Toxicology, 61, 126-129. 1987.
as §1, with “(125-250” for “(125-200”, “sacrifices” for “sacrificed”, “cortical” for “brain”, “mM tris” for “nM Tris”, “C.). The centrifuge glassware used in this step has been rinsed by sonication for 10 min. in ethanol.” for “C.).”, “500” for “400”
Incubation tubes kept on ice in triplicate receive 100 μl of drug solution in water (or water for total binding) and 2000 μl of tissue suspension (final tissue content corresponds to 4 mg original tissue). […] After incubation for 30 min. the samples are filtered under vacuum (0-50 mBar) through Whatman GF/F filters (25 mm). The tubes are rinsed with 5 ml ice-cold buffer which are then poured on the filters. Thereafter, the filters are washed with 2×5 ml of buffer. The filters are placed in counting vials and 4 ml of appropriate scintillation fluid (e.g., Picofluor™15) are added. After shaking for 1 h and storage 2 hrs in the dark the content of radioactivity is determined by liquid scintillation counting. Specific binding is obtained by subtracting the nonspecific binding in the presence of 1 μM mianserin. For determination of the inhibition of binding five concentrations of drugs covering 3 decades are used.
The IC50 value is determined as the concentration at which the binding is 50% of the total binding in control samples minus the nonspecific binding in the presence of 1 μM mianserin.

[3] = biological target: T2, dopamine D-2 receptors (Rattus norvegicus, UniProt P61169); assay: inhibition of 3H-spiperone binding to dopamine D-2 receptors in rat corpus striatum in vitro
T2 construct: striatal tissue is dissected and weighed; from tissue; host or cells: corpus striatum membranes of male Wistar rats
Method: INHIBITION OF ^3 H-SPIPERONE BINDING TO DOPAMINE D-2 RECEPTORS IN RAT CORPUS STRIATUM IN VITRO
By this method the inhibition by drugs of the binding of ^3 H-spiperone (0.5 nM) to dopamine D-2 receptors in membranes from rat corpus striatum is determined in vitro. Method and results in Hyttel and Larsen, J. Neurochem, 44, 1615-1622, 1985).
as §1, with “(Mol:Wistar)” for “(Mol:Wist)”, “(125-250” for “(125-200”, “striatal” for “brain”, “mM K-phosphate” for “nM Tris”, “7.4” for “7.7”, “1300” for “400”
Incubation tubes kept on ice in triplicate receive 100 μl of drug solution in water (or water for total binding) and 4000 μl of tissue suspension (final tissue content corresponds to 3.08 mg original tissue). The binding experimental is initiated by addition of 100 μl of ^3 H-spiperone (final concentration 0.5 nM) and by placing the tubes in a 37° C. water bath. After incubation for 10 min. the samples are filtered under vacuum (0-50 mBar) through Whatman GF/F filters (25 mm). The tubes are rinsed with 5 ml ice-cold buffer which are then poured on the filters. Thereafter, the filters are washed with 2×5 ml of buffer. The filters are placed in counting vials and 4 ml of appropriate scintillation fluid (e.g. Picofluor ™15) are added. After shaking for 1 h and storage 2 hrs in the dark the content of radioactivity is determined by liquid scintillation counting. Specific binding is obtained by subtracting the nonspecific binding in the presence of 10 μM of 6,7-ADTN.
as §2
England, specific activity 15-25 Ci/mmol.

[4] = 3H-spiperone 0.5 nM, rat corpus striatum membranes, in vitro, read-out: Binding IC50, 3H Spi.

T2 sequence (P61169 whole entry): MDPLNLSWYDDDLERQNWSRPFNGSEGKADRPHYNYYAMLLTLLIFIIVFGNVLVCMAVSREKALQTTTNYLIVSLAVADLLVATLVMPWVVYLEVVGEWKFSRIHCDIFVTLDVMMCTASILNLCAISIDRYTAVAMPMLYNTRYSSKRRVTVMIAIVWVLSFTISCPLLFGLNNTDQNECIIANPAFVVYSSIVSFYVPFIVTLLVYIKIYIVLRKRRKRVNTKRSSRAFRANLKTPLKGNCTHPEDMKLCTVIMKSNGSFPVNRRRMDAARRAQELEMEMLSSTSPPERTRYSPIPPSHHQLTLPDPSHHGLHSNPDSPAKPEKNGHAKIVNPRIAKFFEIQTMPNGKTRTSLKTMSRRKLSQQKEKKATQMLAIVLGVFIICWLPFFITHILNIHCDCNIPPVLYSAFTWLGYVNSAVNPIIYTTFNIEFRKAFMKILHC
T1 sequence (P14842 whole entry): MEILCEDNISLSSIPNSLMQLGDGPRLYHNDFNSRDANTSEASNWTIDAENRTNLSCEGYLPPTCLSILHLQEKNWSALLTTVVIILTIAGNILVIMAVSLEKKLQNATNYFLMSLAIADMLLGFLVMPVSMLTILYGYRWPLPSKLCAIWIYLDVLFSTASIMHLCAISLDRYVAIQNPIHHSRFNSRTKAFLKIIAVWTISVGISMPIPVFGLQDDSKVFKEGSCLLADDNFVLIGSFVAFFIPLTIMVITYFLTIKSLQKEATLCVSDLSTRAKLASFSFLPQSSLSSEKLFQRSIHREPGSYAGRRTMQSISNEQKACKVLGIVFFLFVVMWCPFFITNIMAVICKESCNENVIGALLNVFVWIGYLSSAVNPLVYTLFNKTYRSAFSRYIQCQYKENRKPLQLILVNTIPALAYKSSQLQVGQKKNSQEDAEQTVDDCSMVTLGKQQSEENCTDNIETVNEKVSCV

Structure (SMILES) | IC50 [1] [nM] | IC50 [2] [nM] | IC50 [3] [nM] | IC50 [3, 4] [nM]
CC(C)N1CCN(CCN2CC=C(c3cn(-c4ccc(F)cc4)c4cc(Cl)ccc34)CC2)C1=O [Compound 2a, 6-chloro-1-(4-fluorophenyl)-3-[1-[2-[3-(2-propyl)-2-imidazolidinon-1-yl]ethyl]-1,2,3,6-tetrahydropyridin-4-yl]-1H-indole] | 55 | 3.5 | 66 | –
CC(C)N1CCN(CCN2CCC(c3cn(-c4ccc(F)cc4)c4cc(C(F)(F)F)ccc34)CC2)C1=O [Compound 4c, 1-(4-fluorophenyl)-3-[1-[2-[3-(2-propyl)-2-imidazolidinon-1-yl]ethyl]-4-piperidyl]-6-trifluoromethyl-1H-indole] | 91 | 2.9 | – | 280
O=C1CCCN1CCN1CCC(c2cn(-c3ccc(F)cc3)c3cc(C(F)(F)F)ccc23)CC1 [Compound 4e, 1-(4-fluorophenyl)-3-[1-[2-(2-pyrrolidinon-1-yl)ethyl]-4-piperidyl]-6-trifluoromethyl-1H-indole] | 49 | 2.8 | – | 300
COc1ccc2c(C3CCN(CCN4CCN(C(C)C)C4=O)CC3)cn(-c3ccc(F)cc3)c2c1 [Compound 4i, 1-(4-fluorophenyl)-6-methyoxy-3-[1-[2-[3-(2-propyl)-2-imidazolidinon-1-yl]ethyl]-4-piperidyl]-1H-indole] | 140 | 7.1 | – | 710
CC(C)c1ccc2c(C3CCN(CCN4CCN(C(C)C)C4=O)CC3)cn(-c3ccc(F)cc3)c2c1 [Compound 5c, 1-(4-fluorophenyl)-6-(2-propyl)-3-[1-[2-[3-(2-propyl)-2-imidazolidinon-1-yl]ethyl]-4-piperidyl]-1H-indole] | 730 | 16 | – | 2000
CC(C)N1CCN(CCN2CCC(c3cn(-c4ccc(F)cc4)c4cc(C#N)ccc34)CC2)C1=O [Compound 5i, 6-cyano-1-(4-fluorophenyl)-3-[1-[2-[3-(2-propyl)-2-imidazolidinon-1-yl]ethyl]-4-piperidyl]-1H-indole] | – | 8.6 | – | 1100
N#Cc1ccc2c(C3CCN(CCN4CCNC4=O)CC3)cn(-c3ccc(F)cc3)c2c1 [Compound 5j, 6-cyano-1-(4-fluorophenyl)-3-[1-[2-(2-imidazolidinon-1-yl)ethyl]-4-piperidyl]-1H-indole] | – | 13 | – | 1500
CC(C)N1CCN(CCN2CCN(c3cn(-c4ccc(F)cc4)c4cc(Cl)ccc34)CC2)C1=O [Compound 6a, 6-chloro-1-(4-fluorophenyl)-3-[4-[2-[3-(2-propyl)-2-imidazolidinon-1-yl]ethyl]-1-piperazinyl]-1H-indole] | – | 2.7 | – | 81
Cc1ccc2c(C3CCN(CCNC(=O)NC(C)C)CC3)cn(-c3ccc(F)cc3)c2c1 [Compound 9a, 1-(4-fluorophenyl)-3-[1-[2-[3-(2-propyl)-1-ureido]-1-ethyl]-4-piperidyl]-6-methyl-1H-indole] | 76 | 1.8 | – | 300
CCN(CCN1CCC(c2cn(-c3ccc(F)cc3)c3cc(Cl)ccc23)CC1)C(=O)NC(C)C [Compound 9d, 6-chloro-1-(4-fluorophenyl)-3-[1-[2-[1-ethyl-3-(2-propyl)-1-ureido]-1-ethyl]-4-piperidyl]-1H-indole] | – | 1.9 | – | 150
CC(C)N1CCN(CCN2CCC(c3cn(-c4ccc(F)cc4)c4cc(Cl)ccc34)CC2)C1=S [Compound 13a, 6-chloro-1-(4-fluorophenyl)-3-[1-[2-[3-(2-propyl)-2-imidazolidinthion-1-yl]ethyl]-4-piperidyl]-1H-indole] | 110 | 4.4 | – | 270
Cc1ccc2c(C3CCN(CCN4CCN(C(C)C)C4=O)CC3)cn(-c3cccs3)c2c1 [Compound 15b, 6-methyl-3-[1-[2-[3-(2-propyl)-2-imidazolidinon-1-yl]ethyl]-4-piperidyl]-1-(2-thie-nyl)-1H-indole] | – | 6.7 | – | 2500
Cc1ccc2c(C3CCN(CCN4CCN(C(C)C)C4=O)CC3)cn(-c3ccsc3)c2c1 [Compound 15c, 6-methyl-3-[1-[2-[3-(2-propyl)-2-imidazolidinon-1-yl]ethyl]-4-piperidyl]-1-(3-thie-nyl)-1H-indole] | 330 | 2.6 | – | 1000
Cc1ccc2c(C3CCN(CCN4CCN(C(C)C)C4=O)CC3)cn(-c3ccoc3)c2c1 [Compound 15d, 1-(3-furanyl)-6-methyl-3-[1-[2-[3-(2-propyl)-2-imidazolidinon-1-yl]ethyl]-4-piperi-dyl]-1H-indole] | – | 9.3 | – | 4500
Cc1ccc2c(C3CCN(CCN4CCN(C(C)C)C4=O)CC3)cn(-c3ccncc3)c2c1 [Compound 15e, 6-methyl-3-[1-[2-[3-(2-propyl)-2-imidazolidinon-1-yl]ethyl]-4-piperidyl]-1-(4-pyri-dyl)-1H-indole] | – | 7.6 | – | 3500
Cc1ccc2c(C3CCN(CCN4CCN(C(C)C)C4=O)CC3)cn(-c3ccccc3F)c2c1 [Compound 15f, 1-(2-fluorophenyl)-3-[1-[2-[3-(2-propyl)-2-imidazolidinon-1-yl]ethyl]-4-piperidyl]-6-methyl-1H-indole] | 370 | 2.5 | – | 730
Cc1ccc2c(C3CCN(CCN4CCN(C(C)C)C4=O)CC3)cn(-c3cccc(C(F)(F)F)c3)c2c1 [Compound 15i, 3-[1-[2-[3-(2-propyl)-2-imidazolidinon-1-yl]ethyl]-4-piperidyl]-6-methyl-1-(3-trifluoromethylphenyl)-1H-indole] | – | 150 | – | 3200
O=C1NCCN1CCN1CCC(c2cn(-c3ccccc3)c3cc(Cl)ccc23)CC1 [Compound 15m, 6-chloro-3-[1-[2-[2-imidazolidinon-1-yl]ethyl]-4-piperidyl]-1-phenyl-1H-indole] | – | 4.4 | – | 410
